Measured values from PubChem BioAssay AID1963858 (Molecular Pharmacology Branch, DTP, NCI, 2024).

Test system: HOP-62 multicell spheroids with HUVEC/MSC, viability
Experiment: Anticancer human tumor HOP-62 cell line growth inhibition [KRAS2];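 also: viability read after a week of compound exposure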;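 as to viability, T/C: 100% = DMSO vehicle-treated spheroids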
Conditions: for IC50: curve of first compound; for viability, T/C: stronger effect = lower value
Procedure, shortened: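 Combination screen of spheroid viability in tumor-cell co-cultures with endothelial (HUVEC) and mesenchymal stem cell stroma. Each agent was tested in half-log dilutions, topping at clinical Cmax or at 10 microM without a known Cmax.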

[1] = second compound 0.1 µM, first compound 0.0316 µM
[2] = second compound 0.1 µM, first compound 0.1 µM
[3] = second compound 0.1 µM, first compound 0.316 µM
[4] = second compound 0.1 µM, first compound 1 µM
[5] = second compound 0.1 µM, first compound 3.16 µM
[6] = second compound 0.1 µM, first compound 10 µM
[7] = second compound 0.316 µM, first compound 0.0316 µM
[8] = second compound 0.316 µM, first compound 0.1 µM
[9] = second compound 0.316 µM, first compound 0.316 µM
[10] = second compound 0.316 µM, first compound 1 µM
[11] = second compound 0.316 µM, first compound 3.16 µM
[12] = second compound 0.316 µM, first compound 10 µM
[13] = second compound 1 µM, first compound 0.0316 µM
[14] = second compound 1 µM, first compound 0.1 µM
[15] = second compound 1 µM, first compound 0.316 µM
[16] = second compound 1 µM, first compound 1 µM
[17] = second compound 1 µM, first compound 3.16 µM
[18] = second compound 1 µM, first compound 10 µM
[19] = second compound 3.16 µM, first compound 0.0316 µM
[20] = second compound 3.16 µM, first compound 0.1 µM
[21] = second compound 3.16 µM, first compound 0.316 µM
[22] = second compound 3.16 µM, first compound 1 µM
[23] = second compound 3.16 µM, first compound 3.16 µM
[24] = second compound 3.16 µM, first compound 10 µM
[25] = second compound 10 µM, first compound 0.0316 µM
[26] = second compound 10 µM, first compound 0.1 µM
[27] = second compound 10 µM, first compound 0.316 µM
[28] = second compound 10 µM, first compound 1 µM
[29] = second compound 10 µM, first compound 3.16 µM
[30] = second compound 10 µM, first compound 10 µM

`CCNC(=O)CC1N=C(c2ccc(Cl)cc2)c2cc(OC)ccc2-n2c(C)nnc21` (stereo not given) + COc1cc2nc(C)nc(NC(C)c3cc(N)cc(C(F)(F)F)c3)c2cc1OC1CCOC1 was tested. Which IC50 (second compound 0.1 µM) did it give?
Its IC50 is 271 nM.

And the IC50 (second compound 0.316 µM)?
The IC50 was 189 nM.

And the IC50 (second compound 1 µM)?
Its IC50 is 193 nM.

What about the IC50 (second compound 3.16 µM) of the same molecule?
Its IC50 is 60.8 nM.

What about the IC50 (second compound 10 µM) of the same molecule?
The IC50 was < 31.6 nM.

What about the viability, T/C [1] of the same molecule?
Its viability, T/C is 90.5%.

And the viability, T/C [2]?
The viability, T/C was 75.9%.

What about the viability, T/C [3] of the same molecule?
The viability, T/C was 44.3%.

And the viability, T/C [4]?
The viability, T/C was 29.4%.

What about the viability, T/C [5] of the same molecule?
The viability, T/C was 21.9%.

And the viability, T/C [6]?
The viability, T/C was 18.2%.

What about the viability, T/C [7] of the same molecule?
Its viability, T/C is 90.4%.

What about the viability, T/C [8] of the same molecule?
The viability, T/C was 65%.

What about the viability, T/C [9] of the same molecule?
The viability, T/C was 37.8%.

What about the viability, T/C [10] of the same molecule?
Its viability, T/C is 23.7%.

What about the viability, T/C [11] of the same molecule?
Its viability, T/C is 19%.

What about the viability, T/C [12] of the same molecule?
The viability, T/C was 18.5%.

And the viability, T/C [13]?
The viability, T/C was 89.2%.

What about the viability, T/C [14] of the same molecule?
The viability, T/C was 59.8%.

And the viability, T/C [15]?
The viability, T/C was 46.9%.

And the viability, T/C [16]?
Its viability, T/C is 17.5%.

And the viability, T/C [17]?
Its viability, T/C is 16.9%.

What about the viability, T/C [18] of the same molecule?
The viability, T/C was 14.4%.

What about the viability, T/C [19] of the same molecule?
The viability, T/C was 60.1%.

And the viability, T/C [20]?
The viability, T/C was 41.7%.

What about the viability, T/C [21] of the same molecule?
Its viability, T/C is 29.1%.

And the viability, T/C [22]?
The viability, T/C was 17.2%.

What about the viability, T/C [23] of the same molecule?
Its viability, T/C is 15.5%.

And the viability, T/C [24]?
Its viability, T/C is 15.2%.

And the viability, T/C [25]?
Its viability, T/C is 43%.

What about the viability, T/C [26] of the same molecule?
The viability, T/C was 35.9%.

What about the viability, T/C [27] of the same molecule?
The viability, T/C was 29.3%.

What about the viability, T/C [28] of the same molecule?
Its viability, T/C is 15.8%.

What about the viability, T/C [29] of the same molecule?
The viability, T/C was 9.2%.

What about the viability, T/C [30] of the same molecule?
Its viability, T/C is 4.11%.

What does the source list for `CCNC(=O)CC1N=C(c2ccc(Cl)cc2)c2cc(OC)ccc2-n2c(C)nnc21` (stereo not given) + C=CC(=O)N1CCN(c2nc(OCC3CCCN3C)nc3c2CCN(c2cccc4cccc(C)c24)C3)CC1CC#N?
IC50 (second compound 0.0316 µM): 168 nM; IC50 (second compound 0.1 µM): 37.4 nM; IC50 (second compound 0.316 µM): 437 nM; IC50 (second compound 1 µM): < 31.6 nM; IC50 (second compound 3.16 µM): < 31.6 nM; viability, T/C (second compound 0.0316 µM, first compound 0.0316 µM): 82.8%; viability, T/C (second compound 0.0316 µM, first compound 0.1 µM): 62.3%; viability, T/C (second compound 0.0316 µM, first compound 0.316 µM): 34.6%; viability, T/C (second compound 0.0316 µM, first compound 1 µM): 33.2%; viability, T/C (second compound 0.0316 µM, first compound 3.16 µM): 27.2%; viability, T/C (second compound 0.0316 µM, first compound 10 µM): 29.3%; viability, T/C [1]: 51%; viability, T/C [2]: 43.6%; viability, T/C [3]: 25.1%; viability, T/C [4]: 22.7%; viability, T/C [5]: 18.2%; viability, T/C [6]: 20.6%; viability, T/C [7]: 95%; viability, T/C [8]: 95.4%; viability, T/C [9]: 53.5%; viability, T/C [10]: 45.1%; viability, T/C [11]: 41.5%; viability, T/C [12]: 36.8%; viability, T/C [13]: 33.2%; viability, T/C [14]: 24.5%; viability, T/C [15]: 20.2%; viability, T/C [16]: 19.2%; viability, T/C [17]: 16.4%; viability, T/C [18]: 16.1%; viability, T/C [19]: 0.58%; viability, T/C [20]: 0.37%; viability, T/C [21]: 0.12%; viability, T/C [22]: 0.12%; viability, T/C [23]: 0.39%; viability, T/C [24]: 0.19%

Which results are given for `CC(C)n1nc(-c2ccc3oc(N)nc3c2)c2c(N)ncnc21` + CC1OCC2(CCN(c3cnc(Sc4ccnc(N)c4Cl)c(N)n3)CC2)C1N?
IC50 (second compound 0.1 µM): 1.56 nM; IC50 (second compound 0.316 µM): 0.678 nM; IC50 (second compound 1 µM): 0.392 nM; IC50 (second compound 3.16 µM): < 0.316 nM; IC50 (second compound 10 µM): < 0.316 nM; viability, T/C (second compound 0.1 µM, first compound 0.000316 µM): 76.5%; viability, T/C (second compound 0.1 µM, first compound 0.001 µM): 65.1%; viability, T/C (second compound 0.1 µM, first compound 0.00316 µM): 25.9%; viability, T/C (second compound 0.1 µM, first compound 0.01 µM): 16.4%; viability, T/C [1]: 12.4%; viability, T/C [2]: 8.07%; viability, T/C (second compound 0.316 µM, first compound 0.000316 µM): 69.2%; viability, T/C (second compound 0.316 µM, first compound 0.001 µM): 40.2%; viability, T/C (second compound 0.316 µM, first compound 0.00316 µM): 21.3%; viability, T/C (second compound 0.316 µM, first compound 0.01 µM): 12%; viability, T/C [7]: 10%; viability, T/C [8]: 7.36%; viability, T/C (second compound 1 µM, first compound 0.000316 µM): 54.4%; viability, T/C (second compound 1 µM, first compound 0.001 µM): 30.5%; viability, T/C (second compound 1 µM, first compound 0.00316 µM): 11.9%; viability, T/C (second compound 1 µM, first compound 0.01 µM): 8.81%; viability, T/C [13]: 8.66%; viability, T/C [14]: 6.23%; viability, T/C (second compound 3.16 µM, first compound 0.000316 µM): 26.6%; viability, T/C (second compound 3.16 µM, first compound 0.001 µM): 22.4%; viability, T/C (second compound 3.16 µM, first compound 0.00316 µM): 10.6%; viability, T/C (second compound 3.16 µM, first compound 0.01 µM): 7.28%; viability, T/C [19]: 6.71%; viability, T/C [20]: 4.89%; viability, T/C (second compound 10 µM, first compound 0.000316 µM): 22.5%; viability, T/C (second compound 10 µM, first compound 0.001 µM): 18.2%; viability, T/C (second compound 10 µM, first compound 0.00316 µM): 10.6%; viability, T/C (second compound 10 µM, first compound 0.01 µM): 7%; viability, T/C [25]: 5.54%; viability, T/C [26]: 4.55%

`CCNC(=O)CC1N=C(c2ccc(Cl)cc2)c2cc(OC)ccc2-n2c(C)nnc21` (stereo not given) + C=CC(=O)N1CCN(c2nc(=O)n(-c3c(C)ccnc3C(C)C)c3nc(-c4c(O)cccc4F)c(F)cc23)C(C)C1 was tested. Which IC50 (second compound 0.1 µM) did it give?
Its IC50 is 74.2 nM.

And the IC50 (second compound 0.316 µM)?
The IC50 was 72.7 nM.

And the IC50 (second compound 1 µM)?
The IC50 was 66.1 nM.

What about the IC50 (second compound 3.16 µM) of the same molecule?
The IC50 was 129 nM.

And the IC50 (second compound 10 µM)?
The IC50 was < 31.6 nM.

And the viability, T/C [1]?
Its viability, T/C is 67.2%.

What about the viability, T/C [2] of the same molecule?
Its viability, T/C is 42.7%.

What about the viability, T/C [3] of the same molecule?
The viability, T/C was 33.2%.

What about the viability, T/C [4] of the same molecule?
Its viability, T/C is 22.6%.

And the viability, T/C [5]?
Its viability, T/C is 19.3%.

What about the viability, T/C [6] of the same molecule?
Its viability, T/C is 19.4%.

What about the viability, T/C [7] of the same molecule?
The viability, T/C was 71.2%.

What about the viability, T/C [8] of the same molecule?
Its viability, T/C is 41.1%.

And the viability, T/C [9]?
Its viability, T/C is 30.1%.

What about the viability, T/C [10] of the same molecule?
The viability, T/C was 24.9%.

And the viability, T/C [11]?
The viability, T/C was 21.9%.

And the viability, T/C [12]?
The viability, T/C was 20.4%.

And the viability, T/C [13]?
The viability, T/C was 60.6%.

And the viability, T/C [14]?
Its viability, T/C is 45%.

And the viability, T/C [15]?
The viability, T/C was 32.5%.

And the viability, T/C [16]?
Its viability, T/C is 24.6%.

And the viability, T/C [17]?
The viability, T/C was 23%.

And the viability, T/C [18]?
Its viability, T/C is 19.8%.

What about the viability, T/C [19] of the same molecule?
The viability, T/C was 71.4%.

What about the viability, T/C [20] of the same molecule?
Its viability, T/C is 53.6%.

What about the viability, T/C [21] of the same molecule?
The viability, T/C was 36.8%.

And the viability, T/C [22]?
Its viability, T/C is 23.3%.

What about the viability, T/C [23] of the same molecule?
Its viability, T/C is 23.1%.

And the viability, T/C [24]?
Its viability, T/C is 19.2%.

And the viability, T/C [25]?
Its viability, T/C is 39.2%.

What about the viability, T/C [26] of the same molecule?
Its viability, T/C is 36.9%.

And the viability, T/C [27]?
The viability, T/C was 25.3%.

And the viability, T/C [28]?
The viability, T/C was 22.2%.

And the viability, T/C [29]?
The viability, T/C was 17.1%.

And the viability, T/C [30]?
The viability, T/C was 17.4%.
